Assay results from patent EP4389751A1, “HETEROCYCLIC COMPOUNDS AND USES THEREOF” (Kumquat Biosciences Inc., priority 2021, dated 2024).

How the values were obtained:
GP2D cells = test: Cell proliferation assay (CellTiter-Glo), K-Ras G12D cells; assay type: cell-based; settings: GP2D cells (K-Ras G12D); read-out: Inhibition of GP2D Cells (IC50)
Outline: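 GP2D (K-Ras G12D) cells seeded in DMEM with 2 mM glutamine and 10% FBS, then dosed next day with a dilution series (e.g., 9-point 3-fold). Viability read by CellTiter-Glo luminescence after about 5 days. IC50 from four-parameter fit.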

[1] = target: T1, KRAS protein (His-tagged GDP-loaded G12S 1-169) (Homo sapiens, UniProt P01116, G12S); test: Covalent modification of KRAS protein, intact-protein LC-MS; assay type: binding; settings: 24hrs at room temperature, KRAS protein ~2 µM
T1 construct: His-tagged GDP-loaded G12S 1-169
Method: Test compounds are prepared as 10 mM stock solutions in DMSO (Fisher cat#BP231-100). KRAS protein (His-tagged GDP-loaded wildtype 1-169, His-tagged GDP-loaded G12S 1-169 or His-tagged GDP-loaded G12D 1-169) is diluted to ~2 µM in appropriate buffer (e.g., a Hepes buffer at physiological conditions). For testing KRAS modification, compounds are diluted to 50X final test concentration in DMSO in 96-well storage plates. 2 µl of the diluted 50X compounds are added to appropriate wells in the PCR plate (Fisher cat#AB-0800). […] of the stock protein solution is added to each well of the 96-well PCR plate. Reactions are mixed carefully. The plate is sealed well with aluminum plate seal, and stored in drawer at room temperature for 24hrs. 5 µl of 2% formic acid (Fisher cat#A1 17-50) in MilliQ H2O is then added to each well followed by mixing with a pipette. The plate is then resealed with aluminum seal and stored until mass spectrometry analysis.
The extent of covalent modification of KRAS proteins was determined by liquid chromatography electrospray mass spectrometry analysis of the intact proteins on a Thermo Q-Exactive Plus mass spectrometer. 20 µl of sample was injected onto a bioZen 3.6 µm Intact C4 column (Phenomenex cat#00B-4767-AN) placed in a column oven set to 40°C and separated using a suitable LC gradient from -20% to ~60% solvent B. Solvent A was 0.1% formic acid and solvent B was 0.1% formic acid in acetonitrile. HESI source settings were set to 40, 5 and 1 for the sheath, auxiliary and sweep gas flow, respectively. The spray voltage was 4 kV, and the capillary temperature was 320°C. S-lens RF level was 50 and auxiliary gas heater temperature was set to 200°C. The mass spectrometry was acquired using a scan range from 650 to 1750 m/z using positive polarity at a mass resolution of 70,000, AGC target of 1e6 ions and maximum injection time of 250ms. The recorded protein mass spectrum was deconvoluted from the raw data file using Protein Deconvolution v4.0 (Thermo). The protein mass and adduct masses were exported with their peak intensities. The peak intensities for the unmodified and modified protein were used to calculate the percent covalent modification of the KRAS protein based on the following equation: %KRAS protein modification = ((KRAS-compound) / (KRAS) + (KRAS-Compound)) *100.

K-Ras G12S = target: T2, K-Ras G12S (Homo sapiens, UniProt P01116, G12S); test: HTRF assay of the K-Ras / SOS1 interaction; assay type: biochemical; settings: IC50 (against K-Ras G12D) to IC50 (against K-Ras G12S)
T2 construct: made in house; host or cells: E. coli (e.g., BL21 (DE3))
Outline: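 GST-K-Ras G12S with anti-GST-Eu donor and His-hSOS1 with anti-6His-XL665 acceptor in ~5 mM HEPES pH 7.4, ~150 mM NaCl, 1 mM DTT, 0.05% BSA, 0.0025% Igepal. Read after ~10 min or longer; IC50 from 665/620 nm ratio, duplicates at 10 µM down to 0.01 µM.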

Row | Structure (SMILES) | IC50 (GP2D cells) [nM] | % G12S Modification at 24 hr. [1] | Ratio of IC50 KRAS G12D vs. IC50 KRAS G12S (K-Ras G12S)
1 | Nc1nc2c(-c3c(Cl)cc4c(N5CCC6(CN(C(=O)n7cncn7)CCO6)C5)nc(OC[C@@]56CCCN5C[C@H](F)C6)nc4c3F)ccc(F)c2s1 (stereo partly drawn) [Compound A202, (2-(7-(2-amino-7-fluorobenzo[d]thiazol-4-yl)-6-chloro-8-fluoro-2-(((2R,7aS)-2-fluorotetrahydro-1H-pyrrolizin-7a(5H)-yl)methoxy)quinazolm-4-yl)-6-oxa-2,9-diazaspiro[4.5]decan-9-yl)(1H-1,2,4-triazol-1-yl)methanone] | 1000 to 10000 | +++ (+++ indicates greater than 20% labelling) | –
2 | CC1(C)CN(c2nc(OC[C@@]34CCCN3C[C@H](F)C4)nc3c(F)c(-c4ccc(F)c5sc(N)nc45)c(Cl)cc23)CC2(CN(C(=O)n3cncn3)C2)O1 [Compound A212, (8-(7-(2-amino-7-fluorobenzo[d]thiazol-4-yl)-6-chloro-8-fluoro-2-(((2R,7aS)-2-fluorotetrahydro-1H-pyrrolizin-7a(5H)-yl)methoxy)quinazolin-4-yl)-6,6-dimethyl-5-oxa-2,8-diazaspiro[3.5]nonan-2-yl)(1H-1,2,4-triazol-1-yl)methanone] | 1000 to 10000 | +++ (+++ indicates greater than 20% labelling) | –
3 | Nc1nc2c(-c3c(Cl)cc4c(N5CCC6(CC5)CN(C(=O)n5cncn5)CCO6)nc(OC[C@@]56CCCN5C[C@H](F)C6)nc4c3F)ccc(F)c2s1 [Compound A225, (9-(7-(2-amino-7-fluorobenzo[d]thiazol-4-yl)-6-chloro-8-fluoro-2-(((2R,7aS)-2-fluorotetrahydro-1H-pyrrolizin-7a(5H)-yl)methoxy)quinazolin-4-yl)-1-oxa-4,9-diazaspiro [5.5]undecan-4-yl)(1H-1,2,4-triazol-1-yl)methanone] | – | ++ (++ indicates between about 1%- 20% labelling) | A (A: indicates that the ratio of IC50 against KrasG12D vs. IC50 against KrasG12S is 1-fold or greater)
4 | N#Cc1cnn(C(=O)N2CCCN(c3nc(OC[C@@]45CCCN4C[C@H](F)C5)nc4c(F)c(-c5ccc(F)c6sc(N)nc56)c(Cl)cc34)CC2)c1 [Compound A231, 1-(4-(7-(2-amino-7-fluorobenzo[d]thiazol-4-yl)-6-chloro-8-fluoro-2-(((2R,7aS)-2-fluorotetrahydro-1H-pyrrolizin-7a(5H)-yl)methoxy)quinazolin-4-yl)-1,4-diazepane-1-carbonyl)-1H-pyrazole-4-carbonitrile] | – | ++ (++ indicates between about 1%- 20% labelling) | A (A: indicates that the ratio of IC50 against KrasG12D vs. IC50 against KrasG12S is 1-fold or greater)
5 | N#Cc1nccn1C(=O)N1CC2CN(c3nc(OC[C@@]45CCCN4C[C@H](F)C5)nc4c(F)c(-c5ccc(F)c6sc(N)nc56)c(Cl)cc34)CC2C1 (stereo partly drawn) [Compound A236, 1-(5-(7-(2-amino-7-fluorobenzo[d]thiazol-4-yl)-6-chloro-8-fluoro-2-(((2R,7aS)-2-fluorotetrahydro-1H-pyrrolizin-7a(5H)-yl)methoxy)quinazolin-4-yl)octahydropyrrolo[3,4-c]pyrrole-2-carbonyl)-1H-imidazole-2-carbonitrile] | – | ++ (++ indicates between about 1%- 20% labelling) | A (A: indicates that the ratio of IC50 against KrasG12D vs. IC50 against KrasG12S is 1-fold or greater)
6 | N#Cc1c(N)sc2c(F)ccc(-c3c(Cl)cc4c(N5CC(F)(F)C6CN(C(=O)n7cncn7)CCC65)nc(OC[C@@]56CCCN5C[C@H](F)C6)nc4c3F)c12 (stereo partly drawn) [Compound A263, 2-amino-4-(6-chloro-4-(3,3-difluoro-5-(1H-1,2,4-triazole-1-carbonyl)octahydro-1H-pyrrolo[3,2-c]pyridin-1-yl)-8-fluoro-2-(((2R,7aS)-2-fluorotetrahydro-1H-pyrrolizin-7a(5H)-yl)methoxy)quinazolm-7-yl)-7-fluorobenzo[b]thiophene-3-carbonitrile] | – | ++ (++ indicates between about 1%- 20% labelling) | A (A: indicates that the ratio of IC50 against KrasG12D vs. IC50 against KrasG12S is 1-fold or greater)
7 | Nc1nc2c(-c3c(Cl)cc4c(N5CCCCC6(CN(C(=O)n7cncn7)C6)C5)nc(OC[C@@]56CCCN5C[C@H](F)C6)nc4c3F)ccc(F)c2s1 [Compound A265, (6-(7-(2-amino-7-fluorobenzo[d]thiazol-4-yl)-6-chloro-8-fluoro-2-(((2R,7aS)-2-fluorotetrahydro-1H-pyrrolizin-7a(5H)-yl)methoxy)quinazolm-4-yl)-2,6-diazaspiro[3.6]decan-2-yl)(1H-1,2,4-triazol-1-yl)methanone] | ≤ 1000 | +++ (+++ indicates greater than 20% labelling) | –
8 | N#Cc1nccn1C(=O)N1CCN(c2nc(OC[C@@]34CCCN3C[C@H](F)C4)nc3c(F)c(-c4ccc(F)c5sc(N)nc45)c(Cl)cc23)CC1 [Compound A272, 1-(4-(7-(2-amino-7-fluorobenzo[d]thiazol-4-yl)-6-chloro-8-fluoro-2-(((2R,7aS)-2-fluorotetrahydro-1H-pyrrolizin-7a(5H)-yl)methoxy)quinazolin-4-yl)piperazine-1-carbonyl)-1H-imidazole-2-carbonitrile] | 1000 to 10000 | +++ (+++ indicates greater than 20% labelling) | –
9 | N#Cc1c(N)sc2c(F)ccc(-c3c(Cl)cc4c(N5CC6CCCN(C(=O)n7cncn7)C6C5)nc(OC[C@@]56CCCN5C[C@H](F)C6)nc4c3F)c12 (stereo partly drawn) [Compound A284, 4-(4-(1-(1H-1,2,4-triazole-1-carbonyl)octahydro-6H-pyrrolo[3,4-b]pyridin-6-yl)-6-chloro-8-fluoro-2-(((2R,7aS)-2-fluorotetrahydro-1H-pyrrolizin-7a(5H)-yl)methoxy)quinazolin-7-yl)-2-amino-7-fluorobenzo[b]thiophene-3-carbonitrile] | – | +++ (+++ indicates greater than 20% labelling) | A (A: indicates that the ratio of IC50 against KrasG12D vs. IC50 against KrasG12S is 1-fold or greater)
10 | N#Cc1cccn1C(=O)N1CCN(c2nc(OC[C@@]34CCCN3C[C@H](F)C4)nc3c(F)c(-c4ccc(F)c5sc(N)nc45)c(Cl)cc23)CC1 [Compound A287, 1-(4-(7-(2-amino-7-fluorobenzo[d]thiazol-4-yl)-6-chloro-8-fluoro-2-(((2R,7aS)-2-fluorotetrahydro-1H-pyrrolizin-7a(5H)-yl)methoxy)quinazolin-4-yl)piperazine-1-carbonyl)-1H-pyrrole-2-carbonitrile] | 1000 to 10000 | ++ (++ indicates between about 1%- 20% labelling) | –
11 | Cc1ncn(C(=O)N2CCCC(Oc3nc(OC[C@@]45CCCN4C[C@H](F)C5)nc4c(F)c(-c5ccc(F)c6sc(N)c(C#N)c56)c(Cl)cc34)C2)n1 (stereo partly drawn) [Compound A302, 2-amino-4-(6-chloro-8-fluoro-2-(((2R,7aS)-2-fluorotetrahydro-1H-pyrrolizin-7a(5H)-yl)methoxy)-4-((1-(3-methyl-1H-1,2,4-triazole-1-carbonyl)piperidin-3-yl)oxy)quinazolin-7-yl)-7-fluorobenzo[b]thiophene-3-carbonitrile] | – | ++ (++ indicates between about 1%- 20% labelling) | A (A: indicates that the ratio of IC50 against KrasG12D vs. IC50 against KrasG12S is 1-fold or greater)
